{"source": "patent US11890296B2", "about": "“Anti-tumor agent containing cytarabine, anti- tumor effect enhancing agent which is used in combination with cytarabine, anti-tumor kit, and anti-tumor agent which is used in combination with cytarabine” (priority 2018, dated 2024)", "key": {"[1]": {"system": "human myeloid leukemia cell line THP1", "experiment": "Cell proliferation test (Cell Titer-Glo), THP1", "type": "cell-based", "settings": "THP1 cells, cytarabine alone", "description": "(§1) The cell proliferation test was performed using human myeloid leukemia cell line U-937 (ATCC, CRL-1593.2), MOLM-13 (DSMZ, ACC 554), HL60 (ATCC, CRL-240), SKM-1 (JCRB cell bank, JCRB0118), OCI-M2 (DSMZ, ACC 619), NOMO-1 (JCRB cell bank, IFO050474), MV4-11 (ATCC, CRL-9591), THP1 (ATCC, TIB-202), and human peripheral blood mononuclear cell PBMC (CTL, CTL-UP-1). As the culture medium of U-937 cells, MOLM-13 cells, HL60 cells, SKM-1 cells, OCI-M2 cells, NOMO-1 cells, MV4-11 cells, and THP1 cells, RPMI1640 (FUJIFILM Wako Pure Chemical Corporation, 189-02025) added with 10% fetal bovine serum (Thermo Fisher Scientific, Inc., 10437-028) and 1% penicillin-streptomycin (10,000 U/mL, Thermo Fisher Scientific, Inc., 15140-122) was used. […] After culturing overnight, 5 μL of FLA3527, ASLAN003, BAY2402234, or cytarabine (Ara-C, C2035, Tokyo Chemical Industry Co., Ltd.) at the predetermined concentration was added, and 3 days later, 25 μL of Cell Titer-Glo (registered trade mark) luminescent cell viability assay (Promega Corporation, G7573) was added, and the light emission amount was measured using an Envision plate reader (PerkinElmer, Inc.). […] The proliferation inhibition concentration for each compound concentration was calculated by the following expression. […]\n(§2) The CI indicating the combined effect of Ara-C and the DHODH inhibitor compound was calculated using the software CalcuSyn of Biosoft."}, "[2]": {"system": "human myeloid leukemia cell line MV4-11", "experiment": "Cell proliferation test (Cell Titer-Glo), MV4-11", "type": "cell-based", "settings": "MV4-11 cells, Ara-C alone", "description": "as §1, §2"}}}
{"compound": "Nc1ccn([C@@H]2O[C@H](CO)[C@@H](O)[C@@H]2O)c(=O)n1", "note": "[Ara-C, cytarabine]", "values": [{"measurement": "cytarabine sensitivity of the cell line", "setting": "[1]", "value": "insensitive"}, {"measurement": "Ara-C sensitivity of the cell line", "setting": "[2]", "value": "sensitive"}]}
